Experimental data from ChEMBL document CHEMBL1144160, “Discovery and optimization of (R)-prolinol-derived agonists of the Growth Hormone Secretagogue receptor (GHSR)” (Bioorg Med Chem Lett, 2008).
pEC50, pKi: −log10 of the molar value.

Legend:
[1] = biological target: T1, Growth hormone secretagogue receptor type 1 (Homo sapiens, UniProt Q92847); assay: Agonist activity at GHSR; type: functional
[2] = biological target: T1, Growth hormone secretagogue receptor type 1; assay: Agonist activity at GHSR relative to full agonist; type: functional
[3] = biological target: T1, Growth hormone secretagogue receptor type 1; assay: Binding affinity to GHSR

T1 sequence (Q92847 whole entry): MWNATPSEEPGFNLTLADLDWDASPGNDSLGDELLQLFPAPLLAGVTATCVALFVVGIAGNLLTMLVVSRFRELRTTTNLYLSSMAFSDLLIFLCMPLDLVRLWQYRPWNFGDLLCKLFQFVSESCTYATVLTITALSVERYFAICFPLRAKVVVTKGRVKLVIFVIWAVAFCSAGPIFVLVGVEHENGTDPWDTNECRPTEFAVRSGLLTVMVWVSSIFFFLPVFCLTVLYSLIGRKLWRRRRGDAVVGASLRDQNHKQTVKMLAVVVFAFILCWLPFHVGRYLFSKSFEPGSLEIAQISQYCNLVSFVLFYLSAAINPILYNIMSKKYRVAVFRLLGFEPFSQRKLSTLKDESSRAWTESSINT

Row | pEC50 [1] | Activity [2] | pKi [3] | Structure (SMILES)
1 | 7.22 | 80% |  | CC(Oc1ccccc1Cl)C(=O)N(Cc1ccc(Cl)cc1)C[C@H]1CCCN1 (stereo partly specified)
2 | 8.00 | 90% |  | CC(Oc1ccccc1Cl)C(=O)N(Cc1cccc(Cl)c1)C[C@H]1CCCN1 (stereo partly specified)
3 | < 5.00 |  |  | O=C(COc1ccccc1)N(C[C@H]1CCCN1)c1ccccc1
4 | 5.70 |  |  | CC(=O)Nc1ccc(N(C[C@H]2CCCN2)C(=O)COc2ccccc2)cc1
5 | ≤ 5.00 |  |  | CC(Oc1ccccc1Cl)C(=O)N(C[C@H]1CCCN1)c1ccc(Cl)cc1 (stereo partly specified)
6 | 5.40 |  |  | CCC(Oc1ccccc1)C(=O)N(C[C@H]1CCCN1)c1ccc(NC(C)=O)cc1 (stereo partly specified)
7 | 7.30 | 80% |  | CC(Oc1ccccc1)C(=O)N(Cc1cccc(Cl)c1)C[C@H]1CCCN1 (stereo partly specified)
8 | 7.40 | 80% |  | CC(Oc1cccc(Cl)c1)C(=O)N(Cc1ccccc1Cl)C[C@H]1CCCN1 (stereo partly specified)
9 | 6.92 | 20% |  | Cc1cccc(CN(C[C@H]2CCCN2)C(=O)C(C)Oc2cccc(Cl)c2)c1 (stereo partly specified)
10 | < 5.00 |  |  | COc1cccc(N(C[C@H]2CCCN2)C(=O)COc2ccccc2)c1
11 | 6.74 | 90% | 5.66 | Cc1ccccc1CN(C[C@H]1CCCN1)C(=O)[C@@H](C)Oc1cccc(Cl)c1
12 | 7.40 | 110% |  | Cc1ccccc1CN(C[C@H]1CCCN1)C(=O)C(C)Oc1ccccc1 (stereo partly specified)
13 | 6.22 | 80% |  | CC(Oc1ccccc1)C(=O)N(C[C@H]1CCCN1)c1ccc(Cl)cc1 (stereo partly specified)
14 | ≤ 5.00 |  |  | CC(Oc1ccccc1Cl)C(=O)N(C[C@H]1CCCN1)c1ccccc1 (stereo partly specified)
15 | 6.82 | 100% |  | CC(Oc1ccccc1)C(=O)N(Cc1ccccc1Cl)C[C@H]1CCCN1 (stereo partly specified)
16 | ≤ 5.00 |  |  | CC(Oc1ccccc1Cl)C(=O)N(C[C@H]1CCCN1)c1ccccc1Cl (stereo partly specified)
17 | 7.05 | 70% |  | Cc1cccc(CN(C[C@H]2CCCN2)C(=O)C(C)Oc2ccccc2Cl)c1 (stereo partly specified)
18 | 7.05 | 110% |  | CC(Oc1ccccc1)C(=O)N(C[C@H]1CCCN1)c1cccc(Cl)c1 (stereo partly specified)
19 | 7.10 | 90% |  | Cc1cccc(CN(C[C@H]2CCCN2)C(=O)C(C)Oc2ccccc2)c1 (stereo partly specified)
20 | 7.70 | 100% | 6.60 | CC(=O)Nc1ccc(N(C[C@H]2CCCN2)C(=O)[C@H](C)Oc2cccc(Cl)c2)cc1
21 | 6.11 | 70% |  | CC(Oc1cccc(Cl)c1)C(=O)N(C[C@H]1CCCN1)c1ccccc1Cl (stereo partly specified)
22 | 5.82 | 100% | ≤ 5.00 | C[C@@H](Oc1cccc(Cl)c1)C(=O)N(Cc1ccccc1)C[C@H]1CCCN1
23 | 6.00 | 80% |  | CC(=O)Nc1cccc(N(C[C@H]2CCCN2)C(=O)C(C)Oc2ccccc2)c1 (stereo partly specified)
24 | 7.40 | 110% |  | CC(Oc1cccc(Cl)c1)C(=O)N(C[C@H]1CCCN1)c1cccc(Cl)c1 (stereo partly specified)
25 | 6.05 |  |  | CCC(Oc1ccccc1)C(=O)N(Cc1ccccc1)C[C@H]1CCCN1 (stereo partly specified)
26 | 5.92 | 100% | ≤ 5.00 | CC(=O)Nc1ccc(N(C[C@H]2CCCN2)C(=O)[C@@H](C)Oc2cccc(Cl)c2)cc1
27 | 7.52 | 90% | 6.59 | CC(=O)Nc1ccc(N(C[C@H]2CCCN2)C(=O)C(C)Oc2cccc(Cl)c2)cc1 (stereo partly specified)

Row | pEC50 [1] | Activity [2] | pKi [3] | Structure (SMILES)
28 | 8.15 | 80% | 6.52 | CC(Oc1cccc(Cl)c1)C(=O)N(Cc1ccccc1)C[C@H]1CCCN1 (stereo partly specified)
29 | 5.30 |  |  | COc1c(-c2ccccc2)cccc1N(C[C@H]1CCCN1)C(=O)COc1ccccc1
30 | 8.70 | 90% | 7.52 | Cc1ccccc1CN(C[C@H]1CCCN1)C(=O)[C@H](C)Oc1cccc(Cl)c1
31 | 8.40 | 90% | 7.52 | C[C@H](Oc1cccc(Cl)c1)C(=O)N(Cc1ccccc1)C[C@H]1CCCN1
32 | 6.70 | 70% |  | CC(=O)Nc1cccc(N(C[C@H]2CCCN2)C(=O)C(C)Oc2ccccc2Cl)c1 (stereo partly specified)
33 | 8.52 | 100% | 7.00 | Cc1ccccc1CN(C[C@H]1CCCN1)C(=O)C(C)Oc1cccc(Cl)c1 (stereo partly specified)
34 | 6.85 | 90% |  | Cc1ccccc1CN(C[C@H]1CCCN1)C(=O)C(C)Oc1ccccc1Cl (stereo partly specified)
35 | 7.30 | 90% |  | CC(=O)Nc1ccc(N(C[C@H]2CCCN2)C(=O)C(C)Oc2ccccc2Cl)cc1 (stereo partly specified)
36 | 5.70 |  |  | CCC(Oc1ccccc1)C(=O)N(C[C@H]1CCCN1)c1cccc(-c2ccccc2)c1OC (stereo partly specified)
37 | 7.70 | 60% |  | CC(Oc1ccccc1Cl)C(=O)N(Cc1ccccc1)C[C@H]1CCCN1 (stereo partly specified)
38 | 5.70 |  |  | CSc1cccc(N(C[C@H]2CCCN2)C(=O)C(C)Oc2ccccc2)c1 (stereo partly specified)
39 | 6.60 | 60% |  | CC(Oc1ccccc1Cl)C(=O)N(C[C@H]1CCCN1)c1cccc(Cl)c1 (stereo partly specified)
40 | 5.40 |  |  | COc1cccc(N(C[C@H]2CCCN2)C(=O)C(C)Oc2ccccc2)c1 (stereo partly specified)
41 | 4.85 |  |  | CCC(Oc1ccccc1)C(=O)N(C[C@H]1CCCN1)c1ccc(CC#N)cc1 (stereo partly specified)
42 | < 5.00 |  |  | CCC(Oc1ccccc1)C(=O)N(C[C@H]1CCCN1)c1cccc(OC)c1 (stereo partly specified)
43 | 7.52 | 90% |  | CC(Oc1cccc(Cl)c1)C(=O)N(Cc1ccc(Cl)cc1)C[C@H]1CCCN1 (stereo partly specified)
44 | < 5.00 |  |  | CCC(Oc1ccccc1)C(=O)N(C[C@H]1CCCN1)c1cccc(SC)c1 (stereo partly specified)
45 | 6.66 | 80% |  | CC(Oc1ccccc1)C(=O)N(Cc1ccc(Cl)cc1)C[C@H]1CCCN1 (stereo partly specified)
46 | 6.59 | 60% |  | CC(Oc1ccccc1Cl)C(=O)N(Cc1ccccc1Cl)C[C@H]1CCCN1 (stereo partly specified)
47 | 6.48 |  |  | CC(=O)Nc1ccc(N(C[C@H]2CCCN2)C(=O)C(C)Oc2ccccc2)cc1 (stereo partly specified)
48 | 6.85 | 60% |  | CC(=O)Nc1cccc(N(C[C@H]2CCCN2)C(=O)C(C)Oc2cccc(Cl)c2)c1 (stereo partly specified)
49 | < 5.00 |  |  | O=C(COc1ccccc1)N(Cc1ccccc1)C[C@H]1CCCN1
50 | 5.90 | 80% |  | CC(Oc1ccccc1)C(=O)N(C[C@H]1CCCN1)c1ccccc1Cl (stereo partly specified)
51 | 7.05 |  |  | CC(Oc1ccccc1)C(=O)N(Cc1ccccc1)C[C@H]1CCCN1 (stereo partly specified)
52 | 7.70 | 70% |  | CC(Oc1cccc(Cl)c1)C(=O)N(Cc1cccc(Cl)c1)C[C@H]1CCCN1 (stereo partly specified)
53 | 5.05 |  |  | CC(Oc1ccccc1)C(=O)N(C[C@H]1CCCN1)c1ccc(CC#N)cc1 (stereo partly specified)

Row | Structure (SMILES) | pEC50 [1] | Activity [2] | pKi [3]
54 | CC(Oc1ccccc1)C(=O)N(C[C@H]1CCCN1)c1ccccc1 (stereo partly specified) | 6.36 |  | 
55 | CC(Oc1cccc(Cl)c1)C(=O)N(C[C@H]1CCCN1)c1ccccc1 (stereo partly specified) | 6.92 | 60% | 
56 | CC(Oc1cccc(Cl)c1)C(=O)N(C[C@H]1CCCN1)c1ccc(Cl)cc1 (stereo partly specified) | 6.92 | 90% | 
